Measurements taken from PMC11391541, “Target-Directed Dynamic Combinatorial Chemistry Affords Binders of Mycobacterium tuberculosis IspE” (ACS Omega, 2024).
In brackets after ≈: the same amount, converted by molar mass. Several values for one entry are separate records, joined by “and”; a condition that tells them apart may be missing. Equal entries are not always repeated.

Columns and labels:
MtbIspE [1] = target: T1, MtbIspE (Mycobacterium tuberculosis, UniProt P9WKG7); experiment: target-directed dynamic combinatorial chemistry (tdDCC), amplification of acylhydrazones in protein-templated vs blank DCL (HPLC-MS/MS, UV 310 nm); assay type: binding; conditions: for Amplification factors (DCL-3): DCL-3, 24 h, I1 and K1 integrated as one cluster; for Amplification factors (DCL-3) / Amplification factors (DCL-4): 40 mol % MtbIspE; for Amplification factors (DCL-4): DCL-4, 24 h
Method: In this study, we used MtbIspE as target protein and the reversible reaction of hydrazides and aldehydes to form dynamic combinatorial libraries (DCLs) of acylhydrazones. […] To accelerate the reaction at neutral pH, aniline was used as nucleophilic catalyst activating the aldehydes.[2],[4],[19] We analyzed the protein’s effect on the DCLs by comparing HPLC-MS/MS data of blank vs protein-templated (PT) experiments. The experiments spanned 3 days, with periodic sampling (every 2 h, followed by two samples per day after 8 h). The addition of NaOH to raise the pH and halt the reactions ensured the sample composition was preserved for analysis.[19] Templated experiments were conducted in duplicate, and the protein was denatured and removed prior to HPLC-MS/MS analysis.
The tdDCC hits and thus potential MtbIspE binders are amplified in the PT experiment compared to the blank experiment. The first step in the analysis of DCLs is the determination of the equilibrium since the amplification factors need to be calculated when the concentration of products is stable. To determine the evolution of the possible products, it is important to measure the characteristic UV absorbance of the acylhydrazones linker (310 nm) during the HPLC-MS/MS run. The resulting UV peaks are assigned to each product using the MS data (Figures S3–S6). The sum of all peak areas is normalized to 100% in order to obtain the respective relative peak area (RPA) for each product. The RPA values represent relative concentrations, determined at each time point of the blank experiment until the values stabilize. […] However, the rest of the compounds are out of range, making a visual inspection difficult. […] The other three libraries behaved in the same way, reaching equilibrium within 24 h and also maintained stable concentrations beyond (Figures S7–S9). To determine the tdDCC hits, we compared the RPAs of the PT experiments to the blanks at 24 h and set a threshold of at least 50% increase in compound formation. In total, 11 acylhydrazones passed our criteria, with amplification factors ranging from […] to 15.5, qualifying them for resynthesis and further evaluation (Figure 3). During the analysis of chromatograms, challenges arose concerning product identification. Some compound peaks were not neatly separated, forcing us to consider them in clusters, others presented two peaks, likely due to isomers, and were considered separately in our evaluation. Lastly, some compounds were detected by MS, but their respective UV signal interfered with the injection peak or was too low for integration (<1%), both in the blank and PT experiments. Consequently, we excluded these compounds from the analysis (Figure S3–S6).
To a well of a 24-well plate, containing Tris buffer (pH 7.0) were added hydrazides (300 μM each, in DMSO), aldehydes (100 μM each, in DMSO), aniline (20 mM, in DMSO), the protein MtbIspE (25 or 40 μM in Tris buffer at pH 7.0), and an additional amount of DMSO to reach a final concentration of 5% in the DCL with 0.5 mL of end-volume. The DCL was allowed to mix on a plate shaker at room temperature and was frequently monitored via LCMS-MS. For analysis, 30 μL of the corresponding library was mixed with 42 μL acetonitrile and 3 μL of NaOH (1 M), the mixture was centrifuged, and the supernatant was used for the analysis. PT experiments were run in duplicates and the protein was omitted for the blank experiments.
High-resolution mass (HRMS) of final products was determined by HPLC-MS/MS using a Thermo Scientific Q Exactive Focus Orbitrap LC -MS/MS system. All compounds were analyzed for purity by LCMS on Acquity UPLC-SQD system from Waters with a gradient elution of Water (Formic acid 0.1%)/Acetonitrile on an HSS - T3 column (2.1 x 50 mm, Waters), 1.8 µm, at 30°C, PDA detection between 240 -320 nm, and MS detection by simultaneous ES+/ES- ionization in a mass range of 150 -800. The flow is set to 0.9 ml/min, and the […]
gradient time is 1.5 min. […]

[2] = solubility in M. tuberculosis 7H9 growth medium; assay type: physicochemical; conditions: Mtb 7H9 growth medium; for solubility: M. tuberculosis 7H9 growth medium, plasma or biological fluid, kinetic from dmso stock
Method: Prior to biological evaluation of the tdDCC hits, we tested their solubility in a standard buffer as well as in M. tuberculosis 7H9 growth medium. […] Regrettably, with 3.3 μM the least soluble compound is E1, making our most amplified and promising compound unsuitable for biological evaluation. We assessed the solubility in Mtb growth medium given that it is a complex, nutrient-rich environment with a distinct solubility profile. However, the trend continued, only seven hits are soluble at 8 μM or above, the remaining five compounds, including E1, were not eligible for antitubercular activity testing (Table 1).
Determination of in vitro anti-tubercular activity and solubility in 7H9 medium Anti-tubercular tests were performed as previously described .1 In brief, 7H9 complete medium (BD Difco; Becton Dickinson, Maryland,USA) supplemented with 10% OADC (BD), 0.2% glycerol, and 0.05% Tween80 as previously described ,3 was used to culture Mycobacterium tuberculosis (Mtb) strain H37Rv (ATCC 25618) carrying a mCherry -expressing plasmid (pCherry10 ).4 Cultures were harvested at mid-log phase and frozen in aliquots at – 80 °C. Prior to testing aliquots were thawed followed by centrifugation and the pellet was resuspended in 7H9 medium with 10% OADC (without glycerol and Tween80). This was further thoroughly resuspended by passing it through a syringe with a 26 -gauge needle to avoid clumping of the bacteria. 2×10^5 CFU (colony forming units) were then cultured in a total volume of 100 μl culture medium (triplicates) to test the non-precipitating compounds for the anti-tubercular activity at the concentrations indicated. For these assays, 96-well flat clear bottom black polystyrene microplates (Corning® CellBIND®, Merck, New York, USA) wer e used. Each plate had Rifampicin (at 1 μg/ml and 0.1 μg/ml) (National Reference Center, Borstel) as a reference compound. Plates were sealed with an air -permeable membrane (Porvair Sciences, Wrexham, UK) in a 37 °C incubator with mild agitation (TiMix5, Edmund Bühler, Germany). The activity of compounds was determined after 7 days by measuring the bacterial growth as relative light units (RLU) from the fluorescence intensity obtained at an excitation wavelength of 575 nm and an emission wavelength of 635 n m in a microplate reader (Synergy 2, BioTek Instruments, Vermont, USA). Two independent experiments (each in triplicates) were performed, and all values were normalized to untreated control sample (100%) in each experiment.
To obtain information regarding the toxicity of our compounds, their impact on the viability of human cells was investigated. HepG2 cells (2x10^4 cells per well) were seeded in 96 -well, flat-bottomed culture plates in 100 µL culture medium (DMEM containing 10% fetal calve serum, 1% penicillin -streptomycin). Twenty-four hours after seeding the cells, medium was removed and replaced by medium containing test compounds in a final DMSO concentration of 1%. Compounds were tested in duplicates at a single concentration or, for CC50 determination, at 8 concentrations that were prepared via 2 -fold serial dilutions in 1% DMSO/medium. Epirubicin and doxorubicin were used as positive controls in serial dilutions starting from 10 µM, and rifampicin was used as a negative control (at 100 µM). The living cell mass was determined 48 h after treatment with compounds by adding 0.1 volumes of 3 -(4,5-dimethylthiazol-2-yl)-2,5-diphenyltetrazolium bromide (MTT) solution (5 mg/mL sterile PBS) (Sigma, St. Louis, MO) to the wells. After incubating the cells for 30 min at 37 °C (atmosphere containing 5% CO2), medium was removed and MTT crystals were dissolved in 75 µL of a solution containing 10% SDS and 0.5% acetic acid in DMSO. The optical density (OD) of the samples was determined photometrically at 570 nm in a PHERAstar Omega plate reader (BMG labtech, Ortenberg, Germany). To obtain percent viability for each sample, their ODs were related to those of DMSO controls. […]

MtbH37Rv = assay type: cell-based, Mycobacterium tuberculosis
EcTolC = experiment: microbe, parasite or virus in culture; assay type: cell-based; conditions: Escherichia coli, 18 h, LB medium, read-out: EcTolC %inh. At 50 μM
EcK12 = experiment: E. coli growth inhibition, wild-type strain K12; assay type: cell-based, Escherichia coli; conditions: Escherichia coli, 18 h, LB medium, read-out: EcK12 %inh. At 50 μM
physchem = conditions: aqueous with cosolvent or surfactant or cyclodextrin, kinetic from dmso stock
MtbIspE [3] = target: T1, MtbIspE; experiment: MtbIspE binding study via MicroScale Thermophoresis (MST); conditions: MST, 20 μM ligand, 200 nM MtbIspE, triplicate; qualitative
in vitro = conditions: human, HepG2 CC50, HepG2, 48 h, MTT
MtbIspE [4] = target: T1, MtbIspE; experiment: MtbIspE binding study via thermal shift assay; conditions: read-out: MtbIspE ΔTm at 20 μM

T1 sequence (P9WKG7 whole entry): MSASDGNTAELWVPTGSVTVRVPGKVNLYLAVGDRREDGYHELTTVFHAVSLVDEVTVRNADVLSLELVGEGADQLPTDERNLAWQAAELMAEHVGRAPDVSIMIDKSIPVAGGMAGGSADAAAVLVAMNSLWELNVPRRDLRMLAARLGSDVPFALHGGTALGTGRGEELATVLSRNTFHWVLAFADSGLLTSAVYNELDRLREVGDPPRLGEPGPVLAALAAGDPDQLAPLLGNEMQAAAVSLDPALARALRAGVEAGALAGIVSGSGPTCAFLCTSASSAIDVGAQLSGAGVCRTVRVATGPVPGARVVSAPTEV

Compound | Amplification factors (DCL-3) (MtbIspE [1]) | solubility [2] | MtbH37Rv MIC90 (MtbH37Rv) | inhibition at 50 µM (EcTolC) | inhibition at 50 µM (EcK12) | solubility at 5 min (physchem; solubility 5% DMSO in PBS) | Amplification factors (DCL-4) (MtbIspE [1]) | solubility in 7H9 [2] | MtbIspE binding at 20 μM (MtbIspE [3]) | CC50 (in vitro) | ΔTm at 20 µM (MtbIspE [4]) | amplification factor (DCL-1 at 24 h) (MtbIspE [1]; DCL-1, 24 h, 25 mol % MtbIspE) | solubility at 5 min (physchem; solubility in PBS with 5% DMSO)
O=C(N/N=C/c1cc(Cl)ccc1O)C12CC3CC(C1)CC(n1cnc(Cl)n1)(C3)C2 [I1, (1R,3S,5R,7S)-3-(3-Chloro-1H-1,2,4-triazol-1-yl)-N′-((Z)-5-chloro-2-hydroxybenzylidene)adamantane-1-carbohydrazide] | 2.0 | 64 µM | no inh. at max. sol. | 33 ± 3% | < 10% | 8 ± 4 µM (≈ 3.47 µg/mL) | – | – | – | – | – | – | –
Nc1c(C(=O)N/N=C/c2ccc(C(F)(F)F)cc2)nnn1-c1cccc(C(F)(F)F)c1 [E4, (E)-5-Amino-N′-(4-(trifluoromethyl)benzylidene)-1-(3-(trifluoromethyl)phenyl)-1H-1,2,3-triazole-4-carbohydrazide] | – | – | – | < 10% | – | 12 ± 6 µM (≈ 5.31 µg/mL) | 0.7 | insoluble | consistently demonstrated binding across all measurements and Yes | > 50 µM | – | – | –
COc1ccc(NC(=O)c2cc(C(=O)N/N=C/c3cc(Cl)ccc3O)n(C)n2)cc1OC [H1, (E)-5-(2-(5-Chloro-2-hydroxybenzylidene)hydrazine-1-carbonyl)-N-(3,4-dimethoxyphenyl)-1-methyl-1H-pyrazole-3-carboxamide] | 7.8 | 32 µM | no inh. at max. sol. | < 10% | – | 28 ± 6 µM (≈ 12.8 µg/mL) | – | – | No | 32 ± 5 µM | < 0.3 °C | – | –
COc1ccc(-c2cc(/C=N/NC(=O)Cn3nc(C)cc3C)no2)cc1 [B6, (E)-2-(3,5-Dimethyl-1H-pyrazol-1-yl)-N′-((5-(4-methoxyphenyl)isoxazol-3-yl)methylene)acetohydrazide] | – | 16 µM | no inh. at max. sol. | < 10% | – | 65 ± 35 µM (≈ 23 µg/mL) | 0.9 | – | bound in two out of three measurements and 2/3 | > 50 µM | < 0.3 °C | – | –
Nc1c(C(=O)N/N=C/c2cc(Cl)ccc2O)nnn1-c1cccc(C(F)(F)F)c1 [E1, (E)-5-Amino-N′-(5-chloro-2-hydroxybenzylidene)-1-(3-(trifluoromethyl)phenyl)-1H-1,2,3-triazole-4-carbohydrazide] | – | – | – | < 10% | – | 3.3 ± 1 µM (≈ 1.4 µg/mL) | – | insoluble | – | > 50 µM | – | 0.5 | –
CN1CCN(CC(=O)N/N=C/c2cc(Cl)ccc2O)CC1 [C1, (E)-N′-(5-Chloro-2-hydroxybenzylidene)-2-(4-methylpiperazin-1-yl)acetohydrazide] | – | 16 µM | no inh. at max. sol. | 17.1 ± 0.1% | < 10% | > 800 µM | – | – | consistently demonstrated binding across all measurements and Yes | > 50 µM | < 0.3 °C | – | ~1000 µM (≈ 311 µg/mL)
COc1ccc(-c2cc(/C=N/NC(=O)c3nnn(-c4cccc(C(F)(F)F)c4)c3N)no2)cc1 [E6, (E)-5-Amino-N′-((5-(4-methoxyphenyl)isoxazol-3-yl)methylene)-1-(3-(trifluoromethyl)phenyl)-1H-1,2,3-triazole-4-carbohydrazide] | – | – | – | < 10% | – | 29 ± 10 µM (≈ 13.7 µg/mL) | 2.3 | insoluble | No | > 50 µM | 0.7 °C | – | –
